The target of the test is T1, SVA 3C^pro (Seneca Valley virus USA/SSV-001, UniProt Q155Z9).
T1 construct: full-length mature 3C cut from the genome polyprotein; codon-optimized, E. coli BL21(DE3); N-terminal His6-SUMO tag removed by ULP1 (lipid strips: His-tagged protein)
Briefly: CL-specific ELISA of lipid co-purified with the protein. As to conditions: endogenous E. coli lipid extracted by heating; lipid-binding (allosteric) site.

T1 sequence (Q155Z9 1509-1719): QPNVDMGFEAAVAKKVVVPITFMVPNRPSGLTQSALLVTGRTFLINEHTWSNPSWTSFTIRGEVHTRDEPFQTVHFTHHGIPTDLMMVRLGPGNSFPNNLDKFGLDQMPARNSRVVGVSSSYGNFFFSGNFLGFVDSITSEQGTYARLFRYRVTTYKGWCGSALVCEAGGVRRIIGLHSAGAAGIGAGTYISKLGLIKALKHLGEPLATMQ

Turning to cardiolipin [CL], the lipid content is listed as ~ 24.2 μg/L.

(Values after paper PMC10256202, “Allosteric regulation of Senecavirus A 3C^pro proteolytic activity by an endogenous phospholipid” (PLOS Pathogens, 2023).)
